{"source": "the METLIN SMRT retention time set (Domingo-Almenara et al. 2019)"}
{"experiment": "gradient 5% acetonitrile 3 min, to 50% in 2 min, to 85% in 15 min, held 3 min, 100 µL/min", "conditions": "column: Zorbax Extend-C18 2.1 x 50 mm; eluents: water / acetonitrile, 0.1% formic acid", "in_short": "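Standards, all pure, were combined into mixtures of ~100 molecules and run at 100 μL/min on a Zorbax Extend-C18 column (2.1 × 50 mm, 1.8 μm) with water and acetonitrile, each containing 0.1% formic acid. A coupled quadrupole time-of-flight mass spectrometer operated in positive and negative ionization mode. Retention time values come from computationally picked adduct peaks, each inspected manually.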", "units": {"RP-LC retention time": "s"}}
{"molecule": "COc1ccc(-c2nnc(SCC(=O)N3CCC(C)CC3)o2)cc1", "RP-LC retention time": 914}
{"molecule": "CCCc1cc(N2CCN(C(=O)c3ccco3)CC2)nc2nnc(CC)n12", "RP-LC retention time": 617}
{"molecule": "CCN1C(=O)c2cccnc2Sc2cc(NC(=O)C3(c4ccccc4)CC3)ccc21", "RP-LC retention time": 937}
{"molecule": "O=C(c1cccnc1)N1CCc2c([nH]c3ccccc23)C1c1ccc(Cl)cc1", "note": "(stereo not drawn)", "RP-LC retention time": 998}
{"molecule": "CN(C)c1cc(C(=O)NC2CC2)c2cc(F)ccc2n1", "RP-LC retention time": 722}
{"molecule": "O=C(Nc1ccc(-n2cnc(C(=O)N3CCN(c4ccccc4)CC3)c2)nc1)C1CC1", "RP-LC retention time": 726}
{"molecule": "N#Cc1cccc(C(=O)N2CCCn3nc(-c4ccc(Cl)cc4)cc3C2)c1", "RP-LC retention time": 933}
{"molecule": "CCn1ccc2c(cc(C(=O)Nc3cc(OC)c(OC)c(OC)c3)n2C)c1=O", "RP-LC retention time": 715}
{"molecule": "CC1=C(c2ccccc2)S(=O)(=O)N=C1N1CCN(c2ccccn2)CC1", "RP-LC retention time": 632}
{"molecule": "COc1ccc(Cl)c(Cn2c(NCC3CCCO3)nc3c2c(=O)n(C)c(=O)n3C)c1", "note": "(stereo not drawn)", "RP-LC retention time": 801}
{"molecule": "COCCOC(=O)c1c(C)oc2ccc(OC(=O)C3CC3)cc12", "RP-LC retention time": 941}
{"molecule": "Cc1ccc(S(=O)(=O)N2CC(=O)N(c3ccccc3C)C(C)(C(=O)NC3CCCC3)C2)cc1", "note": "(stereo not drawn)", "RP-LC retention time": 991}
{"molecule": "CCOc1ccc(S(=O)(=O)N2CCC3(CCC(CN4CCN(C)CC4)O3)CC2)cc1", "note": "(stereo not drawn)", "RP-LC retention time": 611}
{"molecule": "CNC(=O)C1CN(S(=O)(=O)c2ccc(C)cc2)CC12CCCC2", "note": "(stereo not drawn)", "RP-LC retention time": 596}
{"molecule": "Cc1cccc(NC(=O)C2C(=O)NC3(C)CC2c2ccccc2O3)c1", "note": "(stereo not drawn)", "RP-LC retention time": 920}
{"molecule": "O=C(NCCc1c[nH]c2ccccc12)c1cc(S(=O)(=O)N2CCCCC2)ccc1Cl", "RP-LC retention time": 966}
{"molecule": "Cc1ccnn1-c1ccc(SCC(=O)Nc2ccccc2F)nn1", "RP-LC retention time": 869}
{"molecule": "O=c1c2nc(-c3ccc4c(c3)OCO4)cn2ccn1-c1cccc(F)c1", "RP-LC retention time": 785}
{"molecule": "Cc1nn(-c2ccccc2)c(C)c1S(=O)(=O)N1CCC(C(=O)NC2CCCCC2)CC1", "RP-LC retention time": 912}
{"molecule": "CSc1ccccc1CN1CCC(CNC(=O)c2ccccc2Cl)CC1", "RP-LC retention time": 722}
{"molecule": "CCOc1ccccc1NC(=O)N1CCC2(CC1)NC(=O)c1cc(Cl)ccc1N2C", "RP-LC retention time": 904}
{"molecule": "CC1(C)CC(=O)c2cn(-c3ccccc3)c(=O)c(C(=O)NC3CCCC3)c2C1", "RP-LC retention time": 932}
{"molecule": "COCCn1cc2c3c(cccc31)CN(C(=O)Nc1cc(Cl)c(OC)cc1OC)CC2", "RP-LC retention time": 993}
{"molecule": "Cc1nc(-c2ccccc2F)sc1C(=O)NC1CC1", "RP-LC retention time": 827}
{"molecule": "CC(C)c1nnc(-c2cccnc2N2CCN(C(=O)CC3CCCC3)CC2)o1", "RP-LC retention time": 872}
{"molecule": "COCCN(C)C(=O)c1cn(C2CN(S(=O)(=O)C(C)C)C2)nn1", "RP-LC retention time": 635}
{"molecule": "COc1ccc(Nc2cc(Cl)ccc2C(=O)O)cn1", "RP-LC retention time": 978}
{"molecule": "CCn1c(CCNC(=O)c2ccc(OC)nc2)nc2cccnc21", "RP-LC retention time": 732}
{"molecule": "O=C(C1CCCCC1)N1CCCC(c2n[nH]c(C3CC3)n2)C1", "note": "(stereo not drawn)", "RP-LC retention time": 584}
{"molecule": "CC(C)n1c(SCC(=O)N2CCCC2)nnc1-c1ccc2c(c1)OCCCO2", "RP-LC retention time": 671}
{"molecule": "CCCCS(=O)(=O)N1CCN(c2ccc(Nc3cc(C)ccn3)nn2)CC1", "RP-LC retention time": 585}
{"molecule": "CCN1C(=O)C2(CCN(C(=O)NC3CCCCC3)CC2)c2ccccc21", "RP-LC retention time": 867}
{"molecule": "CN(CC1CCOC1)C(=O)Nc1c(F)cccc1F", "note": "(stereo not drawn)", "RP-LC retention time": 638}
{"molecule": "CCCc1noc(-c2ccnc(-n3ncc(C(=O)N4CCCC4)c3C)c2)n1", "RP-LC retention time": 896}
{"molecule": "CCN1C(=O)C(CC(=O)NCCC(C)C)Sc2ncccc21", "note": "(stereo not drawn)", "RP-LC retention time": 738}
{"molecule": "O=C(c1ccoc1)N1CCCC(c2cc(-c3ccccc3)n[nH]2)C1", "note": "(stereo not drawn)", "RP-LC retention time": 594}
{"molecule": "Cc1nc(-c2csc(S(=O)(=O)N3CCC(C(=O)NCC4CCCO4)CC3)c2)no1", "note": "(stereo not drawn)", "RP-LC retention time": 725}
{"molecule": "Cc1nnc(N2CCCC(C(=O)NCc3ccccc3)C2)c2nn(-c3ccc(Cl)cc3)c(C)c12", "note": "(stereo not drawn)", "RP-LC retention time": 765}
